Laboratory results reported in US7488476B2, “B-cell epitope peptides of HSP 65, DNA encoding said peptides, antibodies directed against said peptides and the different uses thereof in the treatment of inflammatory and autoimmune diseases” (priority 1998, dated 2009).

Experiments:
[1] = test system: rat immunoglobulins; assay: ELISA: antibodies of rat sera to Mycobacterial HSP 65 and its peptides; type: binding
[2] = test system: Lewis rats; assay: Anti HSP antibodies in Lewis rats immunized with HSP peptides (ELISA); type: in vivo, rat; details: 100 μg peptide in PBS, 3 times IP; for Anti HSP Antibodies in Immunized Lewis Rats, Antigen 6: antigen peptide 6; for Anti HSP Antibodies in Immunized Lewis Rats, Antigen 7: antigen peptide 7
Description: (§1) ELISA: Flat-bottomed 96 well plates (Corning) were coated with mammalian HSP 60 or Mycobacterial HSP 65 (10 μg/ml) in carbonate buffer pH 9.6 overnight at 4° C.
(§2) HSP peptides were attached to plates pre-treated with glutaraldehyde according to Kasprzyk et al.. Shortly, plates were coated with 100 μl/well of 5% w/v of glutaraldehyde in PBS for 1 hour at room temp. Plates were washed thoroughly with PBS and peptides (1 μg/100 μl) were added to each well, incubated overnight at 4° C. Plates were shaken dry and blocked with BSA 1% in PBS.
(§3) Plates coated with either HSP or peptides were washed again and incubated with rat sera diluted 1:100 with PBS-Tween 0.01% for 90 min. at room temp. After re-washing the plates were incubated with Goat anti rat IgG or IgM conjugated to alkaline-phosphatase for 60 min. at room temp. […] Optical density was measured photometrically at 405 nm.
Modulation of AA by mycobacterial and mammalian HSP peltides: HSP 65 derived peptides were tested for their ability to modulate the appearance or severity of AA in Lewis rats. Rats were immunized with 100 μg of each peptide in PBS, three weeks (3W), 2W and 1W before induction of AA by MT. Control rats received PBS. Rats were bled for testing antibody presence before injection of MT and 30 days post MT injection.
To test whether active immunization with bacterial or mammalian HSP peptides that are recognized by protective immunoglobulins can induce protection against AA, Lewis rats were immunized with the mycobacterial peptides 6, 7, 21, 31, 36, 45, 84, that bound antibodies from resistant Lewis rats (“protective” peptides), with some non-reactive mycobacterial HSP 65 peptides: peptide 26 (residues 151-166), 28 (residues 163-178) or peptide 70 (residues 415-430), and with the mammalian peptide 5.
Rats were injected 3 times intraperitoneally (IP), with one week intervals between injections before induction of AA with MT.

[3] = test system: Lewis rats; assay: Modulation of Adjuvant Arthritis by pre-immunization with HSP peptides; type: in vivo, rat; details: 3 IP injections at one week intervals before AA induction with MT, FIG. 4
[4] = test system: NOD mice; assay: Peptide 6 immunization of NOD mice: onset of diabetes and antibodies by ELISA; type: in vivo, mouse
Description: Naive NOD mice were immunized 3 times intradermally (I.D.) with 100 μg peptide 6 (SEQ ID: No. 2) in CFA and IFA. Control mice received PBS. Mice were monitored for the onset of diabetes by glucose test and for anti-peptide 6 or anti-HSP 65 antibodies by ELISA. Mice immunized with the peptide developed anti-peptide 6 as well as anti-HSP 65 antibodies as detected by OD (1.52±0.07 and 1.43±0.13 respectively) in comparison to CFA immunized mice (0.05±0.01 and 0.01±0.01) and control mice (0.09±0.06 and 0.16±0.16).
To test whether active immunization with the bacterial HSP peptide 6 (SEQ ID: No. 2) can induce protective immunoglobulins against other autoimmune disorders, for instance autoimmune diabetes, NOD mice were immunized with the mycobacterial peptide 6 (“protective” peptide). Naive NOD mice were immunized 3 times I.D. with either 100 μg peptide 6 in CFA and IFA or PBS (control). Mice were monitored for the onset of diabetes by glucose test (appearance of hyperglycemia) and for anti-peptide 6 or […] antibodies by ELISA. Mice immunized with the peptide developed anti-peptide 6 as well as anti-HSP 65 antibodies as reflected by OD (1.52±0.07 and 1.43±0.13 respectively) in comparison to CFA immunized mice (0.05±0.Oland 0.01±0.01) and control mice (0.09±0.06 and 0.16±0.16).

[5] = test system: DBA/1 mice; assay: Modulation of collagen arthritis in DBA/1 mice; type: in vivo, mouse; details: active vaccination
[6] = test system: rat immunoglobulins; assay: ELISA: antibodies of rat sera to mammalian HSP 60 and its peptides; type: binding
Description: as §1
After extensive washing with PBS-Tween 0.05% plates were incubated with blocking buffer containing 1% BSA (Sigma) for 60 min. at RT.
as §2, §3
Previous studies have shown that certain bacterial HSP peptides may trigger self HSP reactive T-cells with disease suppressive regulatory potential. To analyze the anti self-HSP antibody repertoire of these rats, the reactivity of Ig's from naive and post AA Lewis rats as well as from naive BN rats to whole mammalian HSP 60 was tested by ELISA.
(§4) Immunoglobulins from naive Lewis and BN rats and post-AA Lewis rats were tested for binding to 38 synthetic 20-mer peptides of the mammalian HSP 60 by Dot-Blot. […] Quantitative analysis of this binding as well as the binding of immunoglobulins from four and nine month old Lewis rats confirmed the dot blot findings (Table 3).

[7] = test system: rat immunoglobulins; assay: Dot-Blot of rat immunoglobulins with synthetic HSP peptides; type: binding; details: BN and post-AA Lewis rats, not naive Lewis rats
Description: Dot Blots assay: Antigens were dissolved in PBS and samples of 1 μg were adsorbed on Nitrocellulose paper. The paper was air-dried and incubated with BSA 1% in PBS for 20 min. to block non-specific binding. The samples were then washed in PBS-Tween 0.05% and incubated with rat sera diluted 1:100 in BSA-PBS, for 90 min. at room temp. Samples were washed and incubated with goat anti rat antibody conjugated to alkaline phosphatase diluted 1:1000 in BSA-PBS for 90 min. at RT. After re-washing the color reaction was developed by adding a mixture of BCIP-NBT (Sigma-Fast, Sigma) to the […] for 15 min. The reaction was stopped by the addition of tap water.
To define the epitopes recognized by the anti bacterial HSP antibodies, the inventors tested by Dot-Blot the interaction of immunoglobulins from naive young BN rats and post AA Lewis rats with 90 16-mer synthetic peptides of the Mycobacterial 65 KD HSP. Immunoglobulins from naive young Lewis rats served as control.
as §4

[8] = NOD mice immunized 3 times I.D. with 100 μg peptide 6 in CFA and IFA, ELISA

Substance	Antibodies to Mycobacterial HSP 65 Peptides ([1]; strain BN-6w)	Antibodies to Mycobacterial HSP 65 Peptides ([1]; strain Lew-4m)	Antibodies to Mycobacterial HSP 65 Peptides ([1]; strain Lew-6w)	Antibodies to Mycobacterial HSP 65 Peptides ([1]; strain Lew-9m)	Antibodies to Mycobacterial HSP 65 Peptides ([1]; strain Lew-Post AA)	Anti HSP Antibodies in Immunized Lewis Rats, Antigen M5 [2]	Anti HSP Antibodies in Immunized Lewis Rats, Antigen MT-HSP 65 [2]	Anti HSP Antibodies in Immunized Lewis Rats, Antigen 6 [2]	Anti HSP Antibodies in Immunized Lewis Rats, Antigen 7 [2]	AA disease severity after pre-immunization [3]	Antibodies to Mammalian HSP 60 Peptides ([6]; strain BN-6w)	Antibodies to Mammalian HSP 60 Peptides ([6]; strain Lew-4m)	Antibodies to Mammalian HSP 60 Peptides ([6]; strain Lew-6w)	Antibodies to Mammalian HSP 60 Peptides ([6]; strain Lew-9m)	Antibodies to Mammalian HSP 60 Peptides ([6]; strain Lew-Post AA)	reaction with immunoglobulins in Dot-Blot [7]	also measured
GPKGRNVVLEKKWGAP [Peptide 6]	+ (0.16-0.45 = +)	+ (0.16-0.45 = +)	− (<O. 15 = −)	+ (0.16-0.45 = +)	+++ (>0.75 = +++)	− (<O. 15 = −)	++ (0.46-0.75 = ++)	++ (0.46-0.75 = ++)	− (<O. 15 = −)	significant suppression of disease severity	–	–	–	–	–	–	anti-HSP 65 antibodies [4, 8]: 1.43±0.13 OD; anti-peptide 6 antibodies [4, 8]: 1.52±0.07 OD; appearance of the diabetic symptoms ([4]; NOD mice, glucose test, FIG. 7): clearly delayed; number of sick mice ([4]; NOD mice, peptide-6 vaccinated group): significantly lowered; diabetes disease severity ([4]; NOD mice, FIG. 7): significantly reduced; murine collagen arthritis [5]: suppressed significantly
M 30: 20-mer synthetic peptide of the mammalian HSP 60, residues 436-455 (IVLGGGCALLRCIPALDSLK)	–	–	–	–	–	–	–	–	–	–	+ (0.16-0.45 = +)	− (<O. 15 = −)	− (<O. 15 = −)	++ (0.46-0.75 = ++)	++ (0.46-0.75 = ++)	reacted	–
TVIIEQSWGSPKVTKDGVTV (listed as Rattus norvegicus) [Peptide R5, mammalian HSP 60 peptide, residues 61-80]	–	–	–	–	–	− (<O. 15 = −)	+ (0.16-0.45 = +)	+ (0.16-0.45 = +)	− (<O. 15 = −)	significant suppression of disease severity	+ (0.16-0.45 = +)	− (<O. 15 = −)	− (<O. 15 = −)	++ (0.46-0.75 = ++)	+++ (>0.75 = +++)	reacted	–
VVLEKKWGAPTITNDG [Peptide 7]	+ (0.16-0.45 = +)	− (<O. 15 = −)	− (<O. 15 = −)	+ (0.16-0.45 = +)	+ (0.16-0.45 = +)	− (<O. 15 = −)	+ (0.16-0.45 = +)	+ (0.16-0.45 = +)	− (<O. 15 = −)	significant suppression of disease severity	–	–	–	–	–	–	–
